Data published in patent US9315494B2, “Alkyl-amide-substituted pyridyl compounds useful as modulators of IL-12, IL-23 and/or IFNα responses” (Bristol-Myers Squibb Company, priority 2012, dated 2016).

How the values were obtained:
[1] = tested on: IL-23-stimulated STAT-dependent luciferase reporter in Kit225 T cells; assay: Kit225 T cell assay, IL-23 stimulated STAT-dependent luciferase reporter; format: cell-based, human; conditions: Kit225 T cells, 20 ng/mL human recombinant IL-23, 5-6 hours, luciferase; read-out: IL23 (Kit225 T Cell Inhibition Data)
How it was run: (§1)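 Kit225 T cells carrying a stably integrated STAT-luciferase reporter, in RPMI with 10% heat-inactivated FBS, were stimulated with 20 ng/mL IL-23 or 200 U/mL IFNα for 5-6 h. Readout was luminescence from the luciferase reporter.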

[2] = target: T1, recombinantly expressed His-tagged protein corresponding to amino acids 575-869 of human Tyk2 (Homo sapiens, UniProt P29597); assay: Probe displacement assay (scintillation proximity, [3H] probe); format: binding; conditions: 2.5 nM Tyk2 (575-869), 40 nM radiolabeled probe, 30 minutes at room temperature
T1 construct: corresponding to amino acids 575-869 of human Tyk2; made in house
Method: The probe displacement assay is conducted as follows: In a […], test compounds along with recombinantly expressed His-tagged protein corresponding to amino acids 575-869 of human Tyk2 (sequence shown below) at 2.5 nM, 40 nM ((R)-N-(1-(3-(8-methyl-5-(methylamino)-8H-imidazo[4,5-d]thiazolo[5,4-b]pyridin-2-yl)phenyl)ethyl)-2-([^3H]methylsulfonyl)benzamide) (preparation described below) and 80 μg/mL Copper His-Tag scintillation proximity assay beads (Perkin Elmer, Catalog #RPNQ0095) in 50 mM HEPES, pH 7.5, containing 100 μg/mL bovine serum albumin and 5% DMSO were incubated for 30 minutes at room temperature. The amount of radiolabeled probe (preparation described below) bound to Tyk2 was then quantified by scintillation counting, and the inhibition by the test compound calculated by comparison to wells either with no inhibitor (0% inhibition) or without Tyk2 (100% inhibition).
Protein Sequence of recombinant Hig-tagged Tyk2 (575-869):
The preparation of radiolabeled probe, (R)-N-(1-(3-(8-methyl-5-(methylamino)-8H-imidazo[4,5-d]thiazolo[5,4-b]pyridin-2-yl)phenyl)ethyl)-2-([^3H]methylsulfonyl)benzamide, was performed as described below: […]

[3] = tested on: IFNα-stimulated STAT-dependent luciferase reporter in Kit225 T cells; assay: Kit225 T cell assay, IFNα stimulated STAT-dependent luciferase reporter; format: cell-based, human; conditions: Kit225 T cells, 200 U/mL human recombinant IFNα, 5-6 hours, luciferase; read-out: IFNα (Kit225 T Cell Inhibition Data)
How it was run: as §1

T1 sequence (P29597 575-869): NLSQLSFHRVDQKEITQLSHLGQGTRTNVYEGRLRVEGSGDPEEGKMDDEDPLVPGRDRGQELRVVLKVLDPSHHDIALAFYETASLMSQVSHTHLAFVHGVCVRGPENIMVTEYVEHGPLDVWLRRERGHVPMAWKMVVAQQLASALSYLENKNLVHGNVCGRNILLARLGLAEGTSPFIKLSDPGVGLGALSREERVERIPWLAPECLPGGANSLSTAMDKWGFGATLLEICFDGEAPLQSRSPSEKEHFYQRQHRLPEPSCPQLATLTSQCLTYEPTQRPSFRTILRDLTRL

SMILES	IC50 [1] [nM]	EC50 [2] [nM]	IC50 [3] [nM]
CNC(=O)c1cnc(Nc2ccc(F)cn2)cc1Nc1cccc(C(N)=O)c1OC [Example 315, 4-((3-carbamoyl-2-methoxyphenyl)amino)-6-((5-fluoropyridin-2-yl)amino)-N-methylnicotinamide]	90	5	80
CNC(=O)c1cnc(Nc2cc(C)c(F)cn2)cc1Nc1cccc(C(=O)NCC2CCCCC2)c1OC [Example 325]	460	76.4	210
CNC(=O)c1cnc(Nc2cc(C)c(F)cn2)cc1Nc1cccc(C(=O)NCc2ccccn2)c1OC [Example 327]	100	15.3	10
CCC(CC)CNC(=O)c1cccc(Nc2cc(Nc3cc(C)c(F)cn3)ncc2C(=O)NC)c1OC [Example 334]	310	14	230
CNC(=O)c1cnc(Nc2cc(C)c(F)cn2)cc1Nc1cccc(C(=O)NCc2nccs2)c1OC [Example 345]	30	10.5	30
CNC(=O)c1cnc(Nc2cc(C)c(F)cn2)cc1Nc1cccc(C(=O)NCCF)c1OC [Example 356]	120	2.6	80
CNC(=O)c1cnc(Nc2cc(C)c(F)cn2)cc1Nc1cccc(-c2nnco2)c1OC [Example 358]	9.98	5.3	10
CNC(=O)c1cnc(Nc2cc(C)n(C)n2)cc1Nc1cccc(-c2nnc[nH]2)c1OC [Example 363]	70	4.7	40
CNC(=O)c1cnc(Nc2cc(C)nc(C)n2)cc1Nc1cccc(-c2nnc(C)[nH]2)c1OC [Example 365]	10	4.8	10
CCn1cnc(-c2cccc(Nc3cc(Nc4cc(C)nc(C)n4)ncc3C(=O)NC)c2OC)n1 [Example 382]	10	4.6	5.07
CCn1ncnc1-c1cccc(Nc2cc(Nc3cc(C)nc(C)n3)ncc2C(=O)NC)c1OC [Example 383]	100	6.1	20
CNC(=O)c1cnc(Nc2cc(C)c(F)cn2)cc1Nc1cccc(-c2nc[nH]n2)c1OC(F)F [Example 387]	280	4.6	120
CNC(=O)c1cnc(Nc2cc(C)c(F)cn2)cc1Nc1cccc(-c2ccn(C)n2)c1OC [Example 391]	9.66	6	10
CNC(=O)c1cnc(Nc2cc(C)nc(C)n2)cc1Nc1cccc(-c2ccn(C)n2)c1OC [Example 393]	5.83	3.5	2.86
CNC(=O)c1cnc(Nc2cc(C)nc(C)n2)cc1Nc1cccc(-c2cnn(C)c2)c1OC [Example 395]	30	3.1	20
CNC(=O)c1cnc(Nc2cc(C)c(F)cn2)cc1Nc1cccc(-c2cnn(C)c2)c1OC [Example 396]	110	6.5	60
CNC(=O)c1cnc(Nc2cc(C)nc(C)n2)cc1Nc1cc(F)cc(F)c1OC [Example 409]	40	6.3	20
CCc1cc(Nc2cc(Nc3ccccc3S(C)(=O)=O)c(C(=O)NC)cn2)ncn1 [Example 420]	80	3	120
CNC(=O)c1cnc(Nc2cc(OC(C)C)ncn2)cc1Nc1ccccc1S(C)(=O)=O [Example 422]	310	5.7	180
CNC(=O)c1cnc(Nc2ccc(F)cn2)cc1Nc1ccccc1N(C)S(C)(=O)=O [Example 426]	10	4.2	10
[2H]C([2H])([2H])NC(=O)c1cnc(Nc2cc(C)c(C#N)c(C)n2)cc1Nc1ccccc1S(C)(=O)=O [Example 438]	150	11.5	80
[2H]C([2H])([2H])NC(=O)c1cnc(Nc2ccc(C)nn2)cc1Nc1cccc(-c2csc(C)n2)c1OC [Example 448]	11	8	17
[2H]C([2H])([2H])NC(=O)c1cnc(Nc2ccccn2)cc1Nc1cccc(-c2ncc(F)cn2)c1OC [Example 449]	20	1.1	10
[2H]C([2H])([2H])NC(=O)c1cnc(Nc2cc(C(C)(C)O)ccn2)cc1Nc1cccc(-c2ncc(F)cn2)c1OC [Example 450]	20	7.3	10
